Reference: patent publication US8986722B2, “Pest control composition” (priority 2010, dated 2015)

What was measured:
[1] = HLB of polyglycerol fatty acid ester, Griffin formula 20(1−S/A); format: physicochemical; conditions: from saponification and acid values
Description: The HLB (Hydrophile-Lipophile Balance) is an index indicating degrees of hydrophilic properties and lipophilic properties of a surfactant and being shown by a numerical value of 0 to 20. […] Therefore, a surfactant having a low HLB is apt to adapt to a hydrophobic system and a surfactant having a high HLB is apt to adapt to a hydrophilic system.
As the HLB value of said polyglycerol fatty acid ester, a numerical value derived from the following calculation method which is an empirical formula by Griffin is applied. In this regard, as the below-described saponification and acid values, values analyzed in accordance with general test procedures of standards for food additives and standards of quasi-drug ingredients are used. HLB value=20(1−S/A)
S: Saponification value for an ester of a surfactant.
A: Acid value of a fatty acid constituting a surfactant.

[2] = Surface tension by Wilhelmy method (plate method); format: physicochemical; conditions: 20° C., 0.1% by mass aqueous solution
Protocol: For surface tension in the present description, a numerical value measured by Wilhelmy method (plate method) is used. The principle of measurement is as described below. When a platinum plate is contacted with the surface of a liquid, the liquid rises along the plate. Then, surface tension acts along the periphery of the plate and a force drawing the plate into the liquid is generated. Thus in the method, this drawing force is measured and the surface tension is measured. Specifically, a 0.1% by mass aqueous solution of a sample nonionic surfactant is made as a measurement sample, which is measured by an automatic surface tension measuring machine (for example, DY-300 automatic surface tension meter, manufactured by Kyowa Interface Science Corp., Ltd.) by Wilhelmy method shown above at a temperature of 20° C. to determine the surface tension. […] The nonionic surfactant has a property to decrease the surface tension of an aqueous solution. For this reason, when an aqueous solution containing this adheres to the surface of another substance, “wettability” at said surface is improved. As a result, a diluent of the present invention composition containing said nonionic surfactant easily adheres to the surface of target pests and the surface of spray-target agricultural crops.

Compound	HLB [1]	further results
diglycerol dioleic acid ester	about 4	–
hexaglycerol monooleate [SY Glyster MO-5S]	11.6	HLB ([1]; listed as hexaglycerol monooleic acid ester): about 11
diglycerol tetraoleic acid ester	about 2	–
tetraglycerol monolaurate [SY Glyster ML-310]	10.3	HLB ([1]; listed as tetraglycerol monolauric acid ester): about 10
hexaglycerol pentaoleate [SY Glyster PO-5S]	4.9	HLB ([1]; listed as hexaglycerol pentaoleic acid ester): about 5
hexaglycerol condensed ricinoleate [SY Glyster CR-500]	3	HLB ([1]; listed as hexaglycerol-condensed ricinoleic acid ester): about 3
CCCCCCCCOC(=O)CC(C(=O)OCCCCCCCC)S(=O)(=O)O (stereo not drawn) [Newkalgen EP-70G, dioctyl sulfosuccinate]	–	surface tension [2]: 28 mN/m
decaglycerol erucate [SY Glyster NE-750]	3.2	–
polyglycerol condensed ricinoleate [SY Glyster CRS-75]	3	–
decaglycerol dodecaoleic acid ester	about 3	–
decaglycerol undecaoleic acid ester	about 3	–
hexaglycerol octaoleic acid ester	about 4	–
tetraglycerol trioleic acid ester	about 5	–
diglycerol monooleate [S-FACE O-201P]	8	HLB ([1]; listed as diglycerol monooleic acid ester): about 8
tetraglycerol pentaoleic acid ester	about 2	–
decaglycerol monocaprate [SY Glyster MCA-750]	16	HLB ([1]; listed as decaglycerol monocapric acid ester): about 16
decaglycerol nonaoleic acid ester	about 4	–
tetraglycerol tetraoleic acid ester	about 4	–
hexaglycerol heptaoleic acid ester	about 4	–
tetraglycerol hexaoleic acid ester	about 2	–
diglycerol trioleic acid ester	about 3	–
hexaglycerol hexaoleic acid ester	about 4	–
decaglycerol decaoleate [SY Glyster DAO-7S]	3.2	HLB ([1]; listed as decaglycerol decaoleic acid ester): about 4
decaglycerol heptaoleic acid ester	about 5	–
decaglycerol erucate [SY Glyster OE-750]	3.7	–
decaglycerol octaoleic acid ester	about 5	–
